Consider 28 substances from publication PMC10447463, “Data-mining unveils structure–property–activity correlation of viral infectivity enhancing self-assembling peptides” (Nature Communications, 2023).

The format of series [1] is physicochemical. Set-up: key to Fibril / Fibril Formation / TEM 2cat / Fibril: 1 = fibrils present; 0 non-fibrillar structures. The note with it: for Fibril / Fibril Formation: TEM, 1 mg/mL, uranyl acetate stain, qualitative.
Series [2] is described as follows: Turbidity, derived count rate of scattered light. The format is physicochemical. The note with it: for Count Rate / kcps: derived count rate of scattered light at 633 nm, 173°, from zeta-potential measurement, 0.1 mg/mL in 1 mM KCl after 1 d at 1 mg/mL in PBS, turbidity / microscopic aggregation, mean of triplicate; for Log Count Rate: log of derived count rate. In short, it runs like this: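 Samples: 1 mg/mL in PBS pH 7.4 (from DMSO), 1 d at RT, then diluted in 1 mM KCl immediately before measurement. Triplicates, two independent runs averaged.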

[3] abbreviates: log10 of derived count rate of scattered light, Figure 6C.
Where [4] appears, read: logarithm of count rate in kcps.
The mark [5] stands for this setting: derived count rate from zeta measurement, mean.
[6] abbreviates: derived count rate of scattered light.
[7] abbreviates: derived count rate of scattered light, mean, std deviation in separate column.

Like-named read-outs stand apart in the source and are kept apart here.

With KIKIWIW, in series [1], the “Fibril / Fibril Formation” value is listed as 1. The “Count Rate / kcps” value in series [2] came out at 607.7 kcps. The “Log10 Count Rate” value in series [2] (setting [3]) and in series [2] (setting [4]) was 2.784 throughout.
Regarding KIKQIIN [JGA3], the “TEM: 1= fibrils, 0= aggregates (micelle), 0.5 = aggregates and fibrils, -1 = nothing obersved, STD prep” value (from here on “TEM: 1= fibrils, 0= aggregates (micelle)”) in series [1] is recorded as 0.5. Further, the “Log Count Rate” value is 1.806 in series [2] (Fig S8 panels A, C, asymmetric log errors) and 1.806 in series [2] (Fig S8 panels B, D). The “Count Rate” value in series [2] (Fig S8 panels B, D, turbidity, derived count rate of scattered light) was found to be 64.03. In series [2] (setting [5]), the “Zeta Count Rate / kcps” value came to 64.03 kcps. In addition, in series [2] (key not given), the “Zeta Count Rate Category” value was 0.
Take KIWIWIW: the “Fibril / Fibril Formation” value in series [1] is recorded as 1. Further, the “Count Rate / kcps” value in series [2] is listed as 6186.6 kcps. The “Log10 Count Rate” value in series [2] (setting [3]) and in series [2] (setting [4]) was 3.791 in each case.
Take KLKLKLQL [TG16]: the “TEM: 1= fibrils, 0= aggregates (micelle)” value in series [1] is reported as 1. In addition, the “Zeta Count Rate Category” value in series [2] (category 1 / 0, no key given) is 0. Moreover, in series [2] (setting [6]), the “Zeta Count Rate / kcps” value is 42.87 kcps.
As for KLKLTLT, the “Fibril / Fibril Formation” value in series [1] amounted to 1. Also, the “Count Rate / kcps” value in series [2] is listed as 198.5 kcps. Also, the “Log10 Count Rate” value in series [2] (setting [3]) and in series [2] (setting [4]) was 2.298 in each case.
Take KLVFFAK [reference compound]: in series [1], the “Fibril / Fibril Formation” value came out at 1. Besides, in series [2], the “Count Rate / kcps” value is 14 kcps.
For KVKVKVQV [JG14 / TG14], in series [1], the “TEM: 1= fibrils, 0= aggregates (micelle)” value is listed as 0.5. For the same substance, the “Zeta Count Rate Category” value in series [2] (category 1 / 0, no key given) was 0. In addition, the “Zeta Count Rate / kcps” value in series [2] (setting [6]) is listed as 94.37 kcps.
For KVKVQVV [TG2], in series [1], the “TEM: 1= fibrils, 0= aggregates (micelle)” value is on record as 0.5. Moreover, the “Zeta Count Rate Category” value in series [2] (category 1 / 0, no key given) is 0; in series [2] (key not given), 0. The “Zeta Count Rate / kcps” value in series [2] (setting [5]) and in series [2] (setting [6]) was 27.73 kcps each time.
KVKVQVVV [TG8]: in series [1], the “TEM: 1= fibrils, 0= aggregates (micelle)” value came out at 1. For the same substance, the “Zeta Count Rate Category” value came out at 1 in series [2] (category 1 / 0, no key given) and 1 in series [2] (key not given). Further, the “Zeta Count Rate / kcps” value in series [2] (setting [5]) and in series [2] (setting [6]) was 163.1 kcps throughout.
Turning to KYFIL [reference compound], in series [1], the “Fibril / Fibril Formation” value is listed as 0. Further, the “Count Rate / kcps” value in series [2] is given as 18903 kcps.
Consider KYKYQY [KB1], for which the “TEM: 1= fibrils, 0= aggregates (micelle)” value in series [1] stood at 0. Also, the “Zeta Count Rate Category” value in series [2] (category 1 / 0, no key given) was found to be 0. The “Zeta Count Rate / kcps” value in series [2] (setting [6]) worked out at 31.53 kcps.
For LASLIYR [reference compound], the “Fibril / Fibril Formation” value in series [1] stood at 0. Besides, in series [2], the “Count Rate / kcps” value is given as 105 kcps.
As to MKVIFLKDVKG [reference compound], in series [1], the “Fibril / Fibril Formation” value amounted to 1. In addition, in series [2], the “Count Rate / kcps” value stood at 137 kcps.
Take NKGAII [reference compound]: the “Fibril / Fibril Formation” value in series [1] turned out to be 0. Moreover, the “Count Rate / kcps” value in series [2] came out at 68 kcps.
On to RATVYV [reference compound], for which the “Fibril / Fibril Formation” value in series [1] was 1. The “Count Rate / kcps” value in series [2] is listed as 42 kcps.
Take RFWFWFW: in series [1], the “Fibril / Fibril Formation” value turned out to be 0. The “Count Rate / kcps” value in series [2] is listed as 30037.33333 kcps. Besides, the “Log10 Count Rate” value in series [2] (setting [3]) and in series [2] (setting [4]) was 4.478 in each case.
Regarding RGDKIKIQINM [MG8a / CN17], the “TEM: 1= fibrils, 0= aggregates (micelle)” value in series [1] amounted to 1. Further, the “Zeta Count Rate Category” value in series [2] (category 1 / 0, no key given) is listed as 0; in series [2] (key not given) it was 0. Besides, the “Zeta Count Rate / kcps” value in series [2] (setting [5]), in series [2] (setting [6]) and in series [2] (setting [7]) was 57.2 kcps each time.
Consider RGDKIKIQINMC [psis29], for which the “TEM: 1= fibrils, 0= aggregates (micelle)” value in series [1] (FigS26) and in series [1] was 1 each time. Also, the “Zeta Count Rate / kcps” value in series [2] (setting [5]) and in series [2] (setting [7]) was 1404 kcps throughout. Moreover, the “Zeta Count Rate Category” value in series [2] (key not given) was 1.
With RGDKIKIQINMWQ [MG9a], the “TEM: 1= fibrils, 0= aggregates (micelle)” value in series [1] was found to be 0.5. Also, in series [2] (category 1 or 0 from count rate, key not given), the “Zeta Count Rate Category” value was 1. For the same substance, the “Zeta Count Rate / kcps” value in series [2] (derived count rate of scattered light, mean, std deviation in next column) was 1554 kcps; in series [2] (setting [7]), 1554 kcps.
Turning to RGECKFKFQF [CN16], the “TEM: 1= fibrils, 0= aggregates (micelle)” value in series [1] is on record as 1. Also, the “Zeta Count Rate Category” value in series [2] (category 1 / 0, no key given) was determined as 1. Also, the “Zeta Count Rate / kcps” value in series [2] (setting [6]) worked out at 219.3 kcps.
As for RGEKIKIQINM [CN18], the “TEM: 1= fibrils, 0= aggregates (micelle)” value in series [1] is given as 1. In addition, the “Zeta Count Rate Category” value in series [2] (category 1 / 0, no key given) was found to be 1. Moreover, the “Zeta Count Rate / kcps” value in series [2] (setting [6]) was determined as 594.6 kcps.
RINFWFW: the “Fibril / Fibril Formation” value in series [1] amounted to 0. Further, the “Count Rate / kcps” value in series [2] was 50995.8 kcps. The “Log10 Count Rate” value in series [2] (setting [3]) and in series [2] (setting [4]) was 4.708 throughout.
With RIRFHIW, the “Fibril / Fibril Formation” value in series [1] was 0. In addition, in series [2], the “Count Rate / kcps” value was 12.4 kcps. Further, the “Log10 Count Rate” value in series [2] (setting [3]) and in series [2] (setting [4]) was 1.093 in each case.
For the substance RLRLTLC [CN13], the “TEM: 1= fibrils, 0= aggregates (micelle)” value in series [1] turned out to be 1. For the same substance, the “Zeta Count Rate Category” value in series [2] (category 1 / 0, no key given) amounted to 1. Also, the “Zeta Count Rate / kcps” value in series [2] (setting [6]) was 125.6 kcps.
In the case of RQGNINIVA [reference compound], the “Fibril / Fibril Formation” value in series [1] is recorded as 1. Besides, the “Count Rate / kcps” value in series [2] was 36 kcps.
As for RVHLGLG, the “Fibril / Fibril Formation” value in series [1] was determined as 1. Further, in series [2], the “Count Rate / kcps” value amounted to 28.33 kcps. In addition, the “Log10 Count Rate” value in series [2] (setting [3]) and in series [2] (setting [4]) was 1.4523 in each case.
Take RVRVTVT: the “Fibril / Fibril Formation” value in series [1] was 0. Further, the “Count Rate / kcps” value in series [2] amounted to 25.33 kcps. Besides, the “Log10 Count Rate” value in series [2] (setting [3]) and in series [2] (setting [4]) was 1.404 each time.
Regarding VHDCVNITIK [reference compound], in series [1], the “Fibril / Fibril Formation” value came to 1. For the same substance, in series [2], the “Count Rate / kcps” value came out at 12542 kcps.
